Test results published in PubChem BioAssay AID1380 (University of Pittsburgh Molecular Library Screening Center, 2008).
Calls of active or inactive are those of the source. How the calls were made is not given here.

Target: Cyclin-dependent kinase 7 (Homo sapiens) (UniProt P50613)
Test: off-target CDK7 activity blockade – biochemical, 57K library addition, counter-screen for PKD inhibitor project, dose response (AID 1380)
Settings: CDK7 biochemical kinase assay, counterscreen

Chain of Cyclin-dependent kinase 7 (Homo sapiens) (P50613 whole entry, looked up): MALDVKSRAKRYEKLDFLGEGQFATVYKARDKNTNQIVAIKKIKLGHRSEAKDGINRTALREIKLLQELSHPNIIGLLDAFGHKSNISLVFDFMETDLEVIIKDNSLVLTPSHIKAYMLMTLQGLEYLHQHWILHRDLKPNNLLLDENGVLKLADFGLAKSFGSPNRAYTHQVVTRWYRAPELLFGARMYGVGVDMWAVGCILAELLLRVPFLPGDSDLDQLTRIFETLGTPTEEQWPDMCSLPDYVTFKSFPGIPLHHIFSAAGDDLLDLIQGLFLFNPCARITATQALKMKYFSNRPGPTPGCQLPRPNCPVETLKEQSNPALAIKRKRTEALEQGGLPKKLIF

SMILES: C/C(=N\Nc1ncc(Cl)cc1Cl)c1ccccn1
- IC50: > 100 µM (inactive)
